Publication PMC5399635 (The Journal of Pharmacology and Experimental Therapeutics, 2017)
Where two headings read alike, the source gives them in different places.

Columns and labels:
[1] = Quantitative whole body autoradiography; type: in vivo, rat; conditions: for Concentration of radioactivity, Blood / Concentration of radioactivity, Brain / Concentration of radioactivity, Large intestine wall / Concentration of radioactivity, Liver / Concentration of radioactivity, Spinal cord / Concentration of radioactivity, Fetus (whole) / Concentration of radioactivity, Placenta / Concentration of radioactivity, Uterus: single oral 50 mg/kg
Procedure: Quantitative whole body autoradiography was conducted to track the overall distribution of a single oral dose of radiolabeled naloxegol in adult male and pregnant female rats.
Seven male Lister hooded rats (8–9 weeks old at dosing, body weight 255–290 g each) and 5 time-mated female Sprague-Dawley rats (body weight 347–392 g each) were supplied by Charles River UK Limited (Margate, Kent, UK). All animals were acclimated to the experimental unit before the study (males, 6 days; females, 13 days).
Animals were fasted overnight before dose administration. […] Male rats were administered a mean (±S.D.) of 5.62 (±0.06) MBq/kg; female rats received a mean of 5.60 (±0.03) MBq/kg.
One male rat was humanely euthanized by CO2 narcosis at 0.5, 1, 4, 24, 48, 168, and 504 hours postdose, respectively. One time-mated female rat was humanely euthanized at 0.5, 1, 4, 24, and 48 hours postdose, respectively.
After removal of the whiskers, legs, and tails, the carcasses were frozen by immersion in a mixture of solid CO2 in hexane for approximately 30 minutes and then embedded in a block of carboxymethylcellulose, which was frozen in the same way. After equilibration at approximately –20°C, sagittal sections (30 μm thick) were taken using a whole body cryomicrotome (Leica Biosystems GmbH, Nussloch, Germany). The sections were freeze dried in a chamber of the cryomicrotome before storage at ambient temperature. Carcasses were stored frozen (–20°C) until analysis. After analysis, samples were returned to storage at –20°C. Freeze-dried whole body sections were stored at room temperature.
The radioactivity present in various organs and tissues in whole body sections was determined by QWBA. After exposure, the imaging plates were scanned using a phosphorimage analyzer. Tissues and organs of interest were quantified using AIDA image analysis software (version 4.06; Raytest Isotopenmeßgeräte GmbH, Straubenhardt, Germany). For analysis, representative whole body sections were placed into close contact with phosphor screens and left for a 7-day period. A set of external standards were also exposed on each phosphor screen. These standards were prepared from blood spiked with a serial dilution of a ^14C-labeled reference solution, which was dispensed into holes drilled into a block of carboxymethylcellulose, frozen, and then sectioned in the same way as the animal samples.
After the phosphor screen was scanned, an image of the radioactivity in the sample was stored digitally. For quantitative analysis, six background areas were defined on each stored phosphor screen image. The software automatically calculated the mean background and subsequently subtracted this from all standards and tissues analyzed. A regression coefficient was derived by comparing the response of each standard with the nominal disintegrations per minute per gram over the range of radioactive concentration used and forcing the response curve through the origin. The concentrations of the standards used were in the range of 0.09 to 826.31 μg Eq/g. The response curve was linear over these concentrations and was assumed to be linear to the limit of reliable determination.
Organs or tissues from representative autoradiograms were identified and integrated. The back-calculated tissue concentrations (μg Eq/g) were then determined by the software. The limit of reliable measurement for each storage screen was calculated from the assessment of the mean background of the plate and taken to be three times the S.D. of the mean above background. At the specific activity used in this study, the limit of reliable measurement was in the range of 0.06 to 0.16 μg Eq/g.

human δ-opioid receptor = target: T1, human δ-opioid receptor (Homo sapiens, UniProt P41143); assay: [35S]GTPγS functional assay, δ-opioid receptor (CHO membranes); type: biochemical; conditions: agonist mode, relative to DPDPE 10 µM; single experiment
T1 construct: expressed in transfected cells; host or cells: CHO cells

[2] = In situ rat brain perfusion model; conditions: 30 s perfusion, test compound 20 μM, atenolol 50 μM, antipyrine 5 μM, mean ± S.D.
[3] = test system: panel of more than 300 receptors, ion channels, transporters, and enzymes; assay: Binding screen across a panel of more than 300 targets; conditions: 10 µM; apart from opioid receptors; data not shown
human µ-opioid receptor = human µ-opioid receptor (Homo sapiens, UniProt P35372); assay: [35S]GTPγS binding, Schild-type antagonism of morphine (CHO-K1 membranes); conditions: versus morphine; pooled 3 experiments
[4] = test system: opioid-induced constipation; design: method as in Chey et al., 2014; conditions: two trials, ref Chey et al., 2014, cited from earlier work
other transporters = test system: other transporters; design: method as in earlier work; conditions: ref 2013 AstraZeneca unpublished data; cited from earlier work

Sequence of human µ-opioid receptor (P35372 whole entry): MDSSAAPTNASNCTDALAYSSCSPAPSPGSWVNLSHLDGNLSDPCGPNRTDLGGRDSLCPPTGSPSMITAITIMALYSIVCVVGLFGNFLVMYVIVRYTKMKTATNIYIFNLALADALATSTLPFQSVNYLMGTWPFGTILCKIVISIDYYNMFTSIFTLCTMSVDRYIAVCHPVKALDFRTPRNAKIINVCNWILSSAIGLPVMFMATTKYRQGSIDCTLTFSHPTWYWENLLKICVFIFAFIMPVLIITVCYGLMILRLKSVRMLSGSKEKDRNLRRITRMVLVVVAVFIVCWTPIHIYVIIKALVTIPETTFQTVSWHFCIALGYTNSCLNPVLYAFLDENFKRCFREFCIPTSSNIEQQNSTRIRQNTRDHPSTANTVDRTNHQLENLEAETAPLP
T1 sequence (P41143 whole entry): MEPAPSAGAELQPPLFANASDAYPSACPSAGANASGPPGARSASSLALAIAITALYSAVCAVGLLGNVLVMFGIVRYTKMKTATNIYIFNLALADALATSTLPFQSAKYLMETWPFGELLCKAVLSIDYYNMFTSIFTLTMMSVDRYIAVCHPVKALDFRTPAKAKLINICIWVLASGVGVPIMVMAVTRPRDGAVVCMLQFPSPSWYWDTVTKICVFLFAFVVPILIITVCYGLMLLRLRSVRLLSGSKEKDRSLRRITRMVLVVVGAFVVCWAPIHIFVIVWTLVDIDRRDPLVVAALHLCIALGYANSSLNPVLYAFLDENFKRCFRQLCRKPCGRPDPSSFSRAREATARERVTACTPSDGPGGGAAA

C=CCN1CC[C@]23c4c5ccc(O)c4O[C@H]2[C@@H](OCCOCCOCCOCCOCCOCCOCCOC)CC[C@@]3(O)[C@H]1C5 [Naloxegol, naloxegol]
Concentration of radioactivity, Blood ([1]; male rat, 0.5 h): 3.03 μg Eq/g
Concentration of radioactivity, Brain ([1]; male rat, 0.5 h): BLQ
Concentration of radioactivity, Large intestine wall ([1]; male rat, 0.5 h): 8.83 μg Eq/g
Concentration of radioactivity, Liver ([1]; male rat, 0.5 h): 43.40 μg Eq/g
Concentration of radioactivity, Spinal cord ([1]; male rat, 0.5 h): 0.06 μg Eq/g
Concentration of radioactivity, Blood ([1]; male rat, 1 h): 4.11 μg Eq/g
Concentration of radioactivity, Brain ([1]; male rat, 1 h): 0.21 μg Eq/g
Concentration of radioactivity, Large intestine wall ([1]; male rat, 1 h): 14.09 μg Eq/g
Concentration of radioactivity, Liver ([1]; male rat, 1 h): 66.49 μg Eq/g
Concentration of radioactivity, Spinal cord ([1]; male rat, 1 h): 0.15 μg Eq/g
Concentration of radioactivity, Blood ([1]; male rat, 4 h): 2.14 μg Eq/g
Concentration of radioactivity, Brain ([1]; male rat, 4 h): 0.14 μg Eq/g
Concentration of radioactivity, Large intestine wall ([1]; male rat, 4 h): 12.09 μg Eq/g
Concentration of radioactivity, Liver ([1]; male rat, 4 h): 58.74 μg Eq/g
Concentration of radioactivity, Liver ([1]; male rat, 24 h): 4.61 μg Eq/g
Concentration of radioactivity, Liver ([1]; male rat, 48 h): 7.74 μg Eq/g
Concentration of radioactivity, Liver ([1]; male rat, 168 h): 1.03 μg Eq/g
Concentration of radioactivity, Blood ([1]; pregnant female rat, 0.5 h): 12.38 μg Eq/g
Concentration of radioactivity, Brain ([1]; pregnant female rat, 0.5 h): 0.34 μg Eq/g
Concentration of radioactivity, Fetus (whole) ([1]; pregnant female rat, 0.5 h): 3.10 μg Eq/g
Concentration of radioactivity, Large intestine wall ([1]; pregnant female rat, 0.5 h): 23.61 μg Eq/g
Concentration of radioactivity, Liver ([1]; pregnant female rat, 0.5 h): 68.67 μg Eq/g
Concentration of radioactivity, Placenta ([1]; pregnant female rat, 0.5 h): 21.09 μg Eq/g
Concentration of radioactivity, Spinal cord ([1]; pregnant female rat, 0.5 h): 0.24 μg Eq/g
Concentration of radioactivity, Uterus ([1]; pregnant female rat, 0.5 h): 31.19 μg Eq/g
Concentration of radioactivity, Blood ([1]; pregnant female rat, 1 h): 7.80 μg Eq/g
Concentration of radioactivity, Brain ([1]; pregnant female rat, 1 h): 0.15 μg Eq/g
Concentration of radioactivity, Fetus (whole) ([1]; pregnant female rat, 1 h): 1.99 μg Eq/g
Concentration of radioactivity, Large intestine wall ([1]; pregnant female rat, 1 h): 25.20 μg Eq/g
Concentration of radioactivity, Liver ([1]; pregnant female rat, 1 h): 56.01 μg Eq/g
Concentration of radioactivity, Placenta ([1]; pregnant female rat, 1 h): 12.89 μg Eq/g
Concentration of radioactivity, Spinal cord ([1]; pregnant female rat, 1 h): 0.10 μg Eq/g
Concentration of radioactivity, Uterus ([1]; pregnant female rat, 1 h): 82.21 μg Eq/g
Concentration of radioactivity, Blood ([1]; pregnant female rat, 4 h): 6.92 μg Eq/g
Concentration of radioactivity, Brain ([1]; pregnant female rat, 4 h): 0.28 μg Eq/g
Concentration of radioactivity, Fetus (whole) ([1]; pregnant female rat, 4 h): 2.23 μg Eq/g
Concentration of radioactivity, Large intestine wall ([1]; pregnant female rat, 4 h): 37.45 μg Eq/g
Concentration of radioactivity, Liver ([1]; pregnant female rat, 4 h): 58.78 μg Eq/g
Concentration of radioactivity, Placenta ([1]; pregnant female rat, 4 h): 14.78 μg Eq/g
Concentration of radioactivity, Spinal cord ([1]; pregnant female rat, 4 h): 0.12 μg Eq/g
Concentration of radioactivity, Uterus ([1]; pregnant female rat, 4 h): 185.03 μg Eq/g
Concentration of radioactivity, Fetus (whole) ([1]; pregnant female rat, 24 h): 0.17 μg Eq/g
Concentration of radioactivity, Liver ([1]; pregnant female rat, 24 h): 4.42 μg Eq/g
Concentration of radioactivity, Placenta ([1]; pregnant female rat, 24 h): 0.16 μg Eq/g
Concentration of radioactivity, Uterus ([1]; pregnant female rat, 24 h): 19.04 μg Eq/g
Concentration of radioactivity, Fetus (whole) ([1]; pregnant female rat, 48 h): BLQ
Concentration of radioactivity, Liver ([1]; pregnant female rat, 48 h): 2.68 μg Eq/g
Concentration of radioactivity, Placenta ([1]; pregnant female rat, 48 h): BLQ
Concentration of radioactivity, Uterus ([1]; pregnant female rat, 48 h): 4.00 μg Eq/g
time to elimination of radioactivity from most tissues ([1]; rat, naloxegol-derived radioactivity): ≤ 24 h
agonism (human δ-opioid receptor): no agonism
Brain Uptake [2]: 4.1 ± 1.4 pmol/g brain/s
inhibition of binding across panel [3]: ≤ 30%
Schild slope (human µ-opioid receptor): –1.03
12-week response rate versus placebo ([4]; 12.5 mg once daily): significantly higher than with placebo in only one trial
12-week response rate versus placebo ([4]; 25 mg once daily): Significantly more patients responded
substrate status for other transporters (other transporters): not a substrate of other transporters
